Reference: patent US8058295B2, “Cystic fibrosis transmembrane conductance regulator protein inhibitors and uses thereof” (The Regents of the University of California, priority 2002, dated 2011)

What was measured:
[1] = pKa by spectrophotometric pH titration; type: physicochemical
wildtype CFTR [2] = biological target: T1, wildtype CFTR (Homo sapiens, UniProt P13569); test: Short-circuit current in primary culture of human bronchial epithelial cells; type: cell-based; parameters: cells that natively express wildtype CFTR; endogenous in cells; host or cells: primary human bronchial epithelial cells
T1 sequence (P13569 whole entry): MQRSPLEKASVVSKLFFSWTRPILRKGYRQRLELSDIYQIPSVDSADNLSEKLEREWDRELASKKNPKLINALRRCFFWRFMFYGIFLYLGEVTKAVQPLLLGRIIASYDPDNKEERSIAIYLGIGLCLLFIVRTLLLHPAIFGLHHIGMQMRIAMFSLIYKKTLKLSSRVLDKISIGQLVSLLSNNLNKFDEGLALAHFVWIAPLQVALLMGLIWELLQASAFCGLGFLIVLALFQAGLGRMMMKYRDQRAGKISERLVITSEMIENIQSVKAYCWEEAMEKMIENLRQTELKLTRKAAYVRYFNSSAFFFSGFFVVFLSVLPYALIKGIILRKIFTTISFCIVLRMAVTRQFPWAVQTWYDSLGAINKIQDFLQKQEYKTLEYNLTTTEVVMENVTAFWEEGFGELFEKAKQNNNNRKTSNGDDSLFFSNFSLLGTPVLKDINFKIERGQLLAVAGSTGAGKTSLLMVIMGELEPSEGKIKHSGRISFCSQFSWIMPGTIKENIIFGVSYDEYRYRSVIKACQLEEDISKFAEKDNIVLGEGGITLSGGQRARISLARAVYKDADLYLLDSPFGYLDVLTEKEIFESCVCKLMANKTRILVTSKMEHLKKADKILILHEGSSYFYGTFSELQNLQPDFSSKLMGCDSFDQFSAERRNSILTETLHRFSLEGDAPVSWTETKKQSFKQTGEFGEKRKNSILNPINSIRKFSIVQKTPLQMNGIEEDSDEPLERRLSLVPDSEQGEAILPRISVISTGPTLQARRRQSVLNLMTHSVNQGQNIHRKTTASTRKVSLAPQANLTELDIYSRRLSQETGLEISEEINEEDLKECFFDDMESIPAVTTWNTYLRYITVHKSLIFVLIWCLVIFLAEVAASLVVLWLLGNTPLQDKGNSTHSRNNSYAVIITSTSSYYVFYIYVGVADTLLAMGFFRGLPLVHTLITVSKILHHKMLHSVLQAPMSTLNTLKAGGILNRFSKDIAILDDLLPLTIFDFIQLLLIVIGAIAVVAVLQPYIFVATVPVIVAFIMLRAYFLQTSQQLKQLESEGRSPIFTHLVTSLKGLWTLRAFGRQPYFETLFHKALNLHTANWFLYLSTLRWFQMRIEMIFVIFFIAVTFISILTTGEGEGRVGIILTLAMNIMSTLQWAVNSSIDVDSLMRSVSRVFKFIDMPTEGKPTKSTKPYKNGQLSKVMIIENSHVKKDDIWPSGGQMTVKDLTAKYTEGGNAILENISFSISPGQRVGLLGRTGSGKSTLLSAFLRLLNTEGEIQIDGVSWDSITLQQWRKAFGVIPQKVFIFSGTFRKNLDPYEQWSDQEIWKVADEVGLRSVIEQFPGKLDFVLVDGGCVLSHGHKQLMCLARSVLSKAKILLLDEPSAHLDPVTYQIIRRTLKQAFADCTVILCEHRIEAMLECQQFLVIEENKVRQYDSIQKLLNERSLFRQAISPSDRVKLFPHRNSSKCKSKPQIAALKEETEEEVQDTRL

[3] = system: cholera toxin-induced intestinal fluid secretion; parameters: species or system mice; conditions: mouse, in vivo, po
[4] = system: cholera toxin-induced fluid secretion; parameters: species or system mice; conditions: mouse, in vivo, po
[5] = Analysis of inhibitor metabolism by thin layer chromatography and autoradiography; type: in vivo, mice; conditions: urine, serum, bile, liver homogenate; TLC autoradiography
From the text: Film was exposed for autoradiography for 48 hr (left panel) and 12 hr (right panel).
Aliquots of bodily fluids (plasma, urine, bile) and liver homogenate were spotted onto Silica plates and resolved by thin layer chromatography using a ethyl acetate:hexane:methanol (1:1:0.1) solvent system which gave rf ˜0.5 for the original inhibitor.

CFTR [6] = biological target: T2, CFTR (Homo sapiens, UniProt P13569)
T2 sequence (P13569 whole entry): as above

[7] = Tissue distribution and elimination in mice after intravenous bolus; type: in vivo
Description: (§1) A bolus of ^14C-CFTRinh-172 (2 μCi) was administered intravenously over 1 min in mice (male CD1 mice, 30-35 grams) by tail vein. Mice were sacrificed at 5, 30, 120 and 240 min. Organs were removed, weighed and homogenized in distilled water (10-50 vol %). Radioactivity was determined by scintillation counting of the homogenates (25-50 μL) and expressed as total ^14C-radioactivity per organ (or per gram tissue for skeletal muscle). At the same time blood, urine and bile (from gallbladder or duodenum) were collected and ^14C-radioactivity was measured and expressed per mL of fluid. Elimination studies were done by collections of urine and stool over the first 24 hr after ^14C-CFTRinh-172 administration. Tissue distribution studies were also done on rats prepared as for pharmacokinetic studies.

[8] = biological target: T3, ATP-sensitive K^+ channels (Rattus norvegicus, UniProt Q09429); test: Membrane potential recording in INS-1 pancreatic β cells (K-ATP channels); type: cell-based
T3 construct: endogenous in cells; host or cells: INS-1 rat pancreatic β cell line
T3 sequence (Q09429 whole entry): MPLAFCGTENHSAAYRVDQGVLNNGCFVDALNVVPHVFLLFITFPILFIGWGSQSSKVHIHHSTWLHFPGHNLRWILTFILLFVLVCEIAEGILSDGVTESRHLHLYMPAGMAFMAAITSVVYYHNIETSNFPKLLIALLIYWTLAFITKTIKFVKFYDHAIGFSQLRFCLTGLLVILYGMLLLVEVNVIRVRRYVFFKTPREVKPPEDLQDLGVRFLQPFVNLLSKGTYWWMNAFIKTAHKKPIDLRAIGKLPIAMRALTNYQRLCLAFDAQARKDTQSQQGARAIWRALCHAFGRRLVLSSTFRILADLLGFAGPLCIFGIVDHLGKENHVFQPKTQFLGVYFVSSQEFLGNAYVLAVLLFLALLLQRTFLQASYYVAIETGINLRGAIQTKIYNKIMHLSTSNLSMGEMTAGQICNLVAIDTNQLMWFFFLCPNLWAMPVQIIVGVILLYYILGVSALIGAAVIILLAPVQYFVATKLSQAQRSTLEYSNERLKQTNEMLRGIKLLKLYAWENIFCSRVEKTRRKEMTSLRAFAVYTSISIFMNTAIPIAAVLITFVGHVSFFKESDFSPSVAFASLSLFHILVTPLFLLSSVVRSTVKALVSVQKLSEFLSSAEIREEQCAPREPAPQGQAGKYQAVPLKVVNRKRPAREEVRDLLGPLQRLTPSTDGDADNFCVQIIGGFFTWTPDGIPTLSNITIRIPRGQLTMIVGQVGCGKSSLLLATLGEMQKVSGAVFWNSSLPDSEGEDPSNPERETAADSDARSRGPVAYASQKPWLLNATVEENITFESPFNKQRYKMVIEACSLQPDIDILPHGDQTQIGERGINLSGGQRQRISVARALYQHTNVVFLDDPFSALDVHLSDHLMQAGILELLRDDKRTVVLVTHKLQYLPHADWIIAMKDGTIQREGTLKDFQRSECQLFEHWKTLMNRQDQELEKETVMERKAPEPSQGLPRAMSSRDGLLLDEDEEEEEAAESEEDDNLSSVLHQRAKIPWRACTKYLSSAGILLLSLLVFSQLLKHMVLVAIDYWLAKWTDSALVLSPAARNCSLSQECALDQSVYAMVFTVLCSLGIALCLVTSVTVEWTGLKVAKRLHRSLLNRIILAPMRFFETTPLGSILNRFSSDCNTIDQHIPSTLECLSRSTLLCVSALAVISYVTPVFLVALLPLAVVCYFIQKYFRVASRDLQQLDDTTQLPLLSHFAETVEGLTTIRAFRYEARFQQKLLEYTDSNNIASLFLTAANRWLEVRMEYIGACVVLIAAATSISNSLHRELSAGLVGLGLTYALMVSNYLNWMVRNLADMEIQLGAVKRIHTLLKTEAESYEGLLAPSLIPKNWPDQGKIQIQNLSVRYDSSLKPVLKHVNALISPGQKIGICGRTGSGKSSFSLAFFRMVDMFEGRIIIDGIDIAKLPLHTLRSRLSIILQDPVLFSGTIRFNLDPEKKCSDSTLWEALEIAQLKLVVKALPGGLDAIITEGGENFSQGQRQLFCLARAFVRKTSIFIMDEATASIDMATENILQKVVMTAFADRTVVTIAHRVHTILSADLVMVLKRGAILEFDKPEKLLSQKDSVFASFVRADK
T3 sequence (P70673 whole entry partner): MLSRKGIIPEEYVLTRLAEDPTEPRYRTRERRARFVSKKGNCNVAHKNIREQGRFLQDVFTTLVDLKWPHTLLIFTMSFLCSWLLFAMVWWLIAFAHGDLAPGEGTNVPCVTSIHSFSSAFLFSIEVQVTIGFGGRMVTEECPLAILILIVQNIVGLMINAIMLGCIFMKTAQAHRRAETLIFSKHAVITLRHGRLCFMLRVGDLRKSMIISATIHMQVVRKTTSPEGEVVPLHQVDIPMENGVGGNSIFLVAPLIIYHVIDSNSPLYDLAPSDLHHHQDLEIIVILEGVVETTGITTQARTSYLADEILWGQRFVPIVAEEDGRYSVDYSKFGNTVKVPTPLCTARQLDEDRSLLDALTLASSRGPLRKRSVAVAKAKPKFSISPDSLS

water channel (AQP1) = biological target: T4, water channel (AQP1) (Homo sapiens, UniProt P29972); test: Water channel block; conditions: 5 μM
T4 sequence (P29972 1-269): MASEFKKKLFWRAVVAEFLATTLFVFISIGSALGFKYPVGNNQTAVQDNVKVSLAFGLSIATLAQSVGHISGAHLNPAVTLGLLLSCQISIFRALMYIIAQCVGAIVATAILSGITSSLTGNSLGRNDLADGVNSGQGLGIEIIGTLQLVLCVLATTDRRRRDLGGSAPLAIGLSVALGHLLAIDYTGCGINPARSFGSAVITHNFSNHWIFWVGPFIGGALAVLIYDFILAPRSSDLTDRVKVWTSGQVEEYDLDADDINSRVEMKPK

MDR-1 = biological target: T5, MDR-1 (Homo sapiens, UniProt P08183); test: MDR-1 activity, ^3H-vincristine accumulation in 9HTEo-/Dx cells; type: cell-based; conditions: 5 μM
T5 construct: endogenous in cells; host or cells: 9HTEo-/Dx cells
T5 sequence (P08183 whole entry): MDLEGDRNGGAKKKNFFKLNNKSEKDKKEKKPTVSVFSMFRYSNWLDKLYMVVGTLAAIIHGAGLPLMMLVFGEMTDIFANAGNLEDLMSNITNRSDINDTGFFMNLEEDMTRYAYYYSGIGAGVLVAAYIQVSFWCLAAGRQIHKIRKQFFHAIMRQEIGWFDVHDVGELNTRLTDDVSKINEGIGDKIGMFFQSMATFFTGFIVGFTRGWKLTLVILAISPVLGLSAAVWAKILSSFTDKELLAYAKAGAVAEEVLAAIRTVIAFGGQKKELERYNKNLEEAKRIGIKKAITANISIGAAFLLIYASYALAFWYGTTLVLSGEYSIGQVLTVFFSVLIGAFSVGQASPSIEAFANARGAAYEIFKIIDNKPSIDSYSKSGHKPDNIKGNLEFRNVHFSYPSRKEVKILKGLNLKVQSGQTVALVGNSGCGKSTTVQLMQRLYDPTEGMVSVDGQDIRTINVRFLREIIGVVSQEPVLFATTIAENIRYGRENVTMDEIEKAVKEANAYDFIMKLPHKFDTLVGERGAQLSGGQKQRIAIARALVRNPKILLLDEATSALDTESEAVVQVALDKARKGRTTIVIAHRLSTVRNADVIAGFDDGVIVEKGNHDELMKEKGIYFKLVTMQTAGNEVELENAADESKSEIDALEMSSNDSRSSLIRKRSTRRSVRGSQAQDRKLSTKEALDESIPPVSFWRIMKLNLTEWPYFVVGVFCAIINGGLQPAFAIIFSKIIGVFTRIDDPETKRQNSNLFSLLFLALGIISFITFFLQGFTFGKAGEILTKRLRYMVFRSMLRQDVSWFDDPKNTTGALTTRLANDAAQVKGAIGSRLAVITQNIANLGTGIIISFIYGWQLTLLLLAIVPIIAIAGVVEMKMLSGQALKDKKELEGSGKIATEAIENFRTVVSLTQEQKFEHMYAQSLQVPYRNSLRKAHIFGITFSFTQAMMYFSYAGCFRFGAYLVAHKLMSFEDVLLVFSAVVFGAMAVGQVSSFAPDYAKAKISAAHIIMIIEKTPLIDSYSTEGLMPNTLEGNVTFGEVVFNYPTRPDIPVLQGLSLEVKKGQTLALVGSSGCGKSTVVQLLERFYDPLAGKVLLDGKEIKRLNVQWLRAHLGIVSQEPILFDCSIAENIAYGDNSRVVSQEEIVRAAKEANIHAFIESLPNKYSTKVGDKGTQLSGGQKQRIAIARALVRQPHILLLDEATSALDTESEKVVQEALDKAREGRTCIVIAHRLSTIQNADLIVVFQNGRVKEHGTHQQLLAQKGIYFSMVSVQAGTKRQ

[9] = Pharmacokinetic and oral bioavailability studies in mice; type: in vivo
Description: For comparison other mice were given ^14C-CFTRinh-172 (2 μCi) intravenously by tail vein infusion. Blood was collected from the tail vein at specified times for measurement of plasma ^14C radioactivity. At 6 hours mice were killed by pentobarbital overdose and organs were removed for measurement of radioactivity in homogenates.

[10] = system: Volume-sensitive Cl^− channels; test: Volume-activated Cl^− current, whole-cell patch clamp in FRT cells; type: cell-based, rat; conditions: 5 μM; 250 mosM/kg hypotonic solution
From the text: FIG. 4B is a graphical representation of volume-activated Cl^− current (hypotonic 250 mosM/kg H2O) measured in whole-cell patch clamp experiments on FRT cells.

[11] = Tissue distribution in rats after intravenous bolus; type: in vivo; conditions: 60 min after i.v. bolus
Description: as §1

[12] = system: intestinal fluid absorption; test: Fluid absorption in mouse closed intestinal loops; type: in vivo, mice; conditions: 20 μg intraperitoneal, measured at 30 min
Description: FIG. 10 is a set of graphs providing the results of characterization of the mouse closed-intestinal loop model. Panel A (FIG. 10A): Intestinal loops were injected with 200 μL buffer and loop weight measured at indicated times (mean±SEM, 4 mice per time point). […] Inset (top) Chemical structure of CFTRinh-172. Panel B (FIG. 10B): Time course of cholera toxin-induced fluid secretion in mouse closed-loop model. […] Data for injected loops (1 μg cholera toxin/loop) as mean±SEM (4-6 mice).
First, the kinetics of intestinal loop fluid absorption and secretion were determined to characterize the mouse model. To study absorption, loop fluid content was measured at specified times after injection of 200 μL of PBS into individual loops. […] To study secretion, intestinal loops were injected with cholera toxin (1 μg in 0.1 mL PBS).

wildtype CFTR [13] = biological target: T1, wildtype CFTR; test: YFP fluorescence assay of CFTR-mediated I^− transport in FRT cells; type: cell-based; parameters: expressed in transfected cells; host or cells: Fischer rat thyroid (FRT) cells
CFTR [14] = biological target: T2, CFTR; remark: listed apart in the source
Animal toxicity in mice = type: in vivo
[15] = intraperitoneal 1000 μg/kg daily for 7 days

SMILES: O=C(O)c1ccc(/C=C2\SC(=S)N(c3cccc(C(F)(F)F)c3)C2=O)cc1 [CFTRinh-172, 3-[(3-trifluoromethyl)phenyl]-5-[(4-carboxyphenyl)methylene]-2-thioxo-4-thiazolidinone]
- fraction present as the unionized acid ([1]; physiological pH): ~1%
- pKa ([1]; spectrophotometric pH titration): 5.5
- inhibition of short-circuit current (wildtype CFTR [2]; added from the basolateral side): inhibited short-circuit current
- inhibition of short-circuit current (wildtype CFTR [2]; apical side, amiloride, after CPT-cAMP activation): inhibited short-circuit current strongly
- intestinal fluid accumulation (ratio of intestinal weight before vs. after luminal fluid removal) [3]: remarkably reduced intestinal fluid accumulation
- cholera toxin-induced fluid secretion [4]: Inhibition of cholera toxin-induced fluid secretion
- chemical modification (metabolism) [5]: did not occur
- effect on membrane current (CFTR [6]; 2 μM extracellular perfusion, after 5 μM forskolin): rapid reduction in current at all membrane potentials
- inhibition at 0.2 µM (CFTR [6]; FRT, read-out: inhibition of membrane current): ~50%
- ratio of ^14C radioactivity in urine-to-blood ([7]; mice): 5-7
- average urine radioactivity ([7]; mice, first 2 hours after infusion): 4.2±1.2×10^5 cpm/mL
- ^14C radioactivity in brain, heart, skeletal muscle or testes ([7]; mice, i.v. bolus): Little radioactivity
- organ distribution of ^14C radioactivity ([7]; mice, later times (30-240 min)): accumulated in the intestine
- excreted radioactivity found in the urine ([7]; mice, urine and stool over first 24 hr): 93±3%
- organ distribution of ^14C radioactivity ([7]; mice, within 5 min after i.v. infusion): primarily in liver and kidney
- concentration of ^14C radioactivity in bile vs. blood ([7]; mouse, in vivo): ~9 fold
- accumulation in other vital organs including heart, lung, skeletal muscle and testes ([7]; rodents): little CFTRinh-172 accumulation
- blood-brain barrier penetration ([7]; rodents): did not significantly cross the blood-brain barrier
- effect on membrane potential ([8]; 5 μM): small hyperpolarization
- effect on membrane potential ([8]; 2 and 5 μM): did not depolarize membrane potential
- block of water channel (AQP1) (water channel (AQP1)): did not block
- vincristine accumulation (MDR-1): did not affect vincristine accumulation
- organ distribution ([9]; 6 hr after oral and intravenous administration): accumulation in the gastrointestinal tract as well as the liver and kidney
- oral bioavailability ([9]; TPGS preparation, oral vs. intravenous tissue/serum content at 4-6 hr): 15-20%
- time over which high initial serum concentrations decreased (tissue redistribution) ([9]; mice, intravenous): ~30 min
- time of peak serum radioactivity ([9]; mice, oral administration in TPGS): 60 to 90 min
- concentration of ^14C radioactivity in bile vs. serum ([9]; mouse, in vivo): ~10 fold
- radioactivity excreted in the stool ([9]; over 24 hr): < 10 % of total excreted radioactivity
- block of volume-activated Cl^− currents [10]: did not block
- organ distribution of ^14C radioactivity [11]: little radioactivity in brain, heart and skeletal muscle
- rate of fluid absorption [12]: did not alter the rate of fluid absorption
- inhibition of CFTR activation by other agonists (wildtype CFTR [13]; 5 μM inhibitor, genistein, CPT-cAMP, CPX, 8-MPO, UCCF-029, UCCF-853 (all 50 μM)): effectively inhibited
- t1/2 of inhibition (wildtype CFTR [13]; after addition of 2 μM): 4 min
- time to complete inhibition (wildtype CFTR [13]; after addition of 2 μM): ~10 min
- t1/2 of inhibition reversal after washout (wildtype CFTR [13]; washout of 1 μM): ~5 min
- IC50 (CFTR [14]): 200 to 500 nM
- Kd (CFTR [14]): ~300 nM
- Hill coefficient (CFTR [14]; dose-inhibition of short-circuit current): ~1
- food and water intake (Animal toxicity in mice; [15]): not diminished
- overt toxicity (Animal toxicity in mice; [15]): did not cause overt toxicity
- serum electrolyte concentrations, glucose, liver function indices, serum creatinine, amylase and hematocrit (Animal toxicity in mice; [15]): not changed
- overt toxicity (Animal toxicity in mice; single systemic dose 10 mg/kg): did not cause overt toxicity
